Test results: PubChem BioAssay AID463203 (Broad Institute, 2010)
Calls of active or inactive are those of the source.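 Rule for the calls: active = more than half of replicate measurements showing over 20% loss of kinase signal relative to plate controls; inconclusive = some but at most half of replicates over 20% loss; inactive = no replicate over 20% signal loss.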

What follows are molecules tested against Glycogen synthase kinase-3 alpha (Homo sapiens) (UniProt P49840) (assay: concentration-response blocking of human GSK3A – biochemical, luminescence, cell-free homogeneous, retest, dose response (AID 463203)). Conditions: GSK-3 alpha enzyme, ADP-Glo luminescence, 60 min.
Glycogen synthase kinase-3 alpha (Homo sapiens), sequence (P49840 whole entry, looked up): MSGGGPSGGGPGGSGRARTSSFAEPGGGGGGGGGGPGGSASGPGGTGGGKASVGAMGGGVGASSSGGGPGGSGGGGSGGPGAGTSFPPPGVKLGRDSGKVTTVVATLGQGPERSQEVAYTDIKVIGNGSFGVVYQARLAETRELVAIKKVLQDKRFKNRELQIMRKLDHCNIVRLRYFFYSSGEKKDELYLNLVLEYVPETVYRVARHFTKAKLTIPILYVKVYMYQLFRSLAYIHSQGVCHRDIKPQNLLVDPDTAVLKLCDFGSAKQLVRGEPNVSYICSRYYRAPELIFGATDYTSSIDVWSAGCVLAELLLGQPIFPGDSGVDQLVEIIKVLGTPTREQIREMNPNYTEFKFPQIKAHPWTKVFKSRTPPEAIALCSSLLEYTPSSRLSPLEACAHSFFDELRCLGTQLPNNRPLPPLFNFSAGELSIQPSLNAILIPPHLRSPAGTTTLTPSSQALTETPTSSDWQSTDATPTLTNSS

| SMILES | AC50 |
| --- | --- |
| O=c1[nH]c(=S)n(Cc2ccc(F)cc2)c(O)c1C=NCCCn1ccnc1 | > 30 µM (inactive) |
| COc1ccc(-c2nc(N)n[nH]2)cc1 | > 30 µM (inactive) |
| COc1ccc(-n2c(C)nc(N)c2C(=O)c2ccccc2)cc1 | > 30 µM (inactive) |
| CC(=O)c1sc(NC(=O)CN2C(=O)NC3(CCCC3)C2=O)nc1-c1ccccc1 | 20.7 µM |
| CCOc1ccc(-c2ncncc2-c2ccc(OC)cc2)c(O)c1 | > 30 µM (inactive) |
| COc1cccc(CCNC(=O)c2cc(COc3c(F)cccc3F)on2)c1 | > 30 µM (inactive) |
| CC(C)c1c(C(=O)N/N=C/c2ccncc2)nnn1-c1nonc1N | > 30 µM (inactive) |
| Cc1ccc(N(C)C(=O)C2CCCN2S(=O)(=O)c2cccc3nsnc23)cc1 (stereo unspecified) | 29.8 µM |
| Cc1nc2cc(-c3ccccc3)ccc2o1 | > 30 µM (inactive) |
| Brc1ccccc1C1=Nn2c(nnc2-c2ccccc2)SC1 | > 30 µM (inactive) |
| Cc1oc2ccc(O)cc2c1C(=O)c1ccc(F)cc1 | > 30 µM (inactive) |
| Fc1ccccc1/C=N/Nc1ncnc2ccccc12 | > 30 µM (inactive) |
| CCOC(=O)N1CCC(N2CCN(S(=O)(=O)c3ccc(OC)cc3)CC2)CC1 | > 30 µM (inactive) |
| COc1ccc(-c2noc(CSc3nc(-c4ccccc4)cc(=O)[nH]3)n2)cc1 | > 30 µM (inactive) |
| Nc1nonc1-n1nnc(C(=O)N/N=C/c2ccc(F)cc2)c1-c1cccs1 | 1.05 µM |
| N#CC(C#N)=C1CCc2ccccc2N1 | > 30 µM (inactive) |
| OCC1OC(n2cnc3c(NCCc4ccccc4)ncnc32)C(O)C1O (stereo unspecified) | > 30 µM (inactive) |
| Cc1ccnc(NC(=O)CCC(=O)N(CC(=O)NCc2ccc(F)cc2)CC2CCCO2)c1 (stereo unspecified) | 27.9 µM |
| Cc1ccnc2ccc(SC(F)(F)F)cc12 | > 30 µM (inactive) |
| CCOC(=O)c1cc(-c2ccc(F)cc2)n(CC(=O)NCc2ccccn2)c1C | > 30 µM (inactive) |
| Cn1cnc(C(=O)NC2CCN(C(=O)OC(C)(C)C)CC2)c1C(=O)NC1CCN(C(=O)OC(C)(C)C)CC1 | > 30 µM (inactive) |

| SMILES | AC50 |
| --- | --- |
| CC1CCc2c(sc(NC(=O)CCCn3cnc([N+](=O)[O-])n3)c2C(N)=O)C1 (stereo unspecified) | > 30 µM (inactive) |
| COc1cccc(NC(=O)CN(C)C(=O)C23CC4CC(CC(Cl)(C4)C2)C3)c1 | > 30 µM (inactive) |
| O=C(Nc1cccnc1)c1scc2c1OCCO2 | 23.5 µM |
| COC(=O)CSc1nc(NCC(C)C)nc(N2CCOCC2)n1 | > 30 µM (inactive) |
| COc1ccc(-c2cc(=O)c3ccccc3o2)cc1 | > 30 µM (inactive) |
| O=C1/C(=C/c2cccc([N+](=O)[O-])c2)N2CCC1CC2 | > 30 µM (inactive) |
| CS(=O)(=O)Nc1ccc(-c2cc(/C=C3\SC(N)=NC3=O)c[nH]c2=O)cc1 | 7.53 µM |
| CC(C)(C)C(=O)/C=c1\[nH]c(=O)/c(=C\c2ccc(F)cc2)s1 | 11.9 µM |
| COc1ccc(OC)c(/C=C2\Oc3cc(OCC(=O)N4CC(O)C[C@H]4C(=O)O)ccc3C2=O)c1 (stereo partly specified) | > 30 µM (inactive) |
| N#CC1=C2SCN(Cc3ccco3)CN2C(=O)CC1c1ccc(Cl)cc1 (stereo unspecified) | > 30 µM (inactive) |
| COc1c(-c2ccc(O)cc2)oc2cc(O)cc(O)c2c1=O | 6.97 µM |
| O=c1[nH]c(=O)n(C2CCCCCC2)c(O)c1C=NCCCN1CCOCC1 | 14.4 µM |
| CCc1cc(C(=O)c2ccc(C)cc2)c(NC(=O)CCl)s1 | > 30 µM (inactive) |
| COc1ccc(OC)c(C(=O)c2c(C)oc3cc(Br)c(O)c(CN(C)C)c23)c1 | > 30 µM (inactive) |
| O=C(CSc1ccc2nnc(-c3ccc(F)cc3)n2n1)N1CCCc2ccccc21 | 0.98 µM |
| NC(=O)c1ccc(NCCCN2CCOCC2)c([N+](=O)[O-])c1 | > 30 µM (inactive) |
| CCOC(=O)c1sc(NC(=O)CN2C(=O)NC3(CCC(C)CC3)C2=O)c(C(=O)OCC)c1C (stereo unspecified) | > 30 µM (inactive) |
| O=C(O)c1ccc(Cl)c(NC(=O)C2CCCN2S(=O)(=O)c2cccc3nsnc23)c1 (stereo unspecified) | 19.1 µM |
| Fc1ccccc1-c1nnc2ccc3ccccc3n12 | > 30 µM (inactive) |
| COc1cc(/C=N/O)ccc1OCc1ccc([N+](=O)[O-])cc1 | > 30 µM (inactive) |
